From PubChem BioAssay AID330 (DTP/NCI, 2004)
Values joined by “and” are separate entries in the source; they are usually repeats but may differ in a detail not shown here. Identical values can stand only once. Inconclusive results and toxic doses are left out.

Tested on: P388 leukemia ip, CD2F1 mice, survival T/C
Experiment: NCI In Vivo Anticancer Drug Screen. Data for tumor model P388 Leukemia (intraperitoneal) in CD2F1 (CDF1) mice
Settings: endpoint: median survival time, higher = longer survival
How it was run: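 Mice carrying the transplanted tumor received test compound or vehicle. Survival was recorded in each group, and the value is the treated-group measurement divided by that of the vehicle-treated control group.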

[1] = dose: 50.0 mg/kg/injection, schedule: Q01DX009 (ip), vehicle: Klucel (hydroxypropylcellulose) (HPC)
[2] = dose: 100.0 mg/kg/injection, schedule: Q04DX003 (ip), vehicle: saline with Tween-80
[3] = dose: 400.0 mg/kg/injection, schedule: Q04DX003 (ip), vehicle: saline with Tween-80
[4] = dose: 60.0 mg/kg/injection, schedule: Q01DX005 (ip), vehicle: saline with Tween-80
[5] = dose: 120.0 mg/kg/injection, schedule: Q01DX005 (ip), vehicle: saline with Tween-80
[6] = dose: 240.0 mg/kg/injection, schedule: Q01DX005 (ip), vehicle: saline with Tween-80
[7] = dose: 100.0 mg/kg/injection, schedule: Q01DX009 (ip), vehicle: Klucel (hydroxypropylcellulose) (HPC)
[8] = dose: 200.0 mg/kg/injection, schedule: Q01DX009 (ip), vehicle: Klucel (hydroxypropylcellulose) (HPC)
[9] = dose: 200.0 mg/kg/injection, schedule: Q04DX003 (ip), vehicle: saline with Tween-80
[10] = dose: 25.0 mg/kg/injection, schedule: Q01DX009 (ip), vehicle: saline with Tween-80
[11] = dose: 50.0 mg/kg/injection, schedule: Q01DX009 (ip), vehicle: saline with Tween-80
[12] = dose: 50.0 mg/kg/injection, schedule: Q04DX003 (ip), vehicle: saline with Tween-80
[13] = dose: 100.0 mg/kg/injection, schedule: Q01DX009 (ip), vehicle: saline with Tween-80

For `CCOC1(C)Oc2cc3c(cc2C(c2cc(OC)c(OC)c(OC)c2)C1C)OCO3` (centres undefined), the T/C (dose: 60.0 mg/kg/injection, schedule: Q01DX005 (ip), vehicle: Klucel (hydroxypropylcellulose) (HPC)) was 96 % of control, the T/C (dose: 120.0 mg/kg/injection, schedule: Q01DX005 (ip), vehicle: Klucel (hydroxypropylcellulose) (HPC)) was 100 % of control and the T/C (dose: 240.0 mg/kg/injection, schedule: Q01DX005 (ip), vehicle: Klucel (hydroxypropylcellulose) (HPC)) was 98 % of control.

In the case of `[C-]#[O+].[C-]#[O+].[C-]#[O+].[C-]#[O+].[Mo].c1cnc2c(c1)ccc1cccnc12`, the T/C (dose: 6.25 mg/kg/injection, schedule: Q01DX009 (ip), vehicle: Klucel (hydroxypropylcellulose) (HPC)) is reported as 100 % of control, the T/C (dose: 12.5 mg/kg/injection, schedule: Q01DX009 (ip), vehicle: Klucel (hydroxypropylcellulose) (HPC)) is reported as 95 % of control and the T/C (dose: 25.0 mg/kg/injection, schedule: Q01DX009 (ip), vehicle: Klucel (hydroxypropylcellulose) (HPC)) is reported as 93 % of control. The T/C [1] was 95 % of control.

In the case of `Cc1cc2c(cc1C)Nc1oc3ccc4ccccc4c3c(=O)c1C=N2`, the T/C (dose: 6.25 mg/kg/injection, schedule: Q01DX005 (ip), vehicle: Klucel (hydroxypropylcellulose) (HPC)) is reported as 104 % of control, the T/C (dose: 12.5 mg/kg/injection, schedule: Q01DX005 (ip), vehicle: Klucel (hydroxypropylcellulose) (HPC)) is reported as 99 % of control and the T/C (dose: 25.0 mg/kg/injection, schedule: Q01DX005 (ip), vehicle: Klucel (hydroxypropylcellulose) (HPC)) is reported as 96 % of control. The T/C (dose: 200.0 mg/kg/injection, schedule: Q01DX005 (ip), vehicle: Klucel (hydroxypropylcellulose) (HPC)) was 89 % of control.

With `CCN(CC)CCCNc1nnnc2ccccc12` the T/C (dose: 100.0 mg/kg/injection, schedule: Q04DX002 (ip), vehicle: saline) was 103 % of control and the T/C (dose: 200.0 mg/kg/injection, schedule: Q04DX002 (ip), vehicle: saline) was 90 % of control.

In the case of `Nc1ccn(C2OC(COP(=O)(O)O)C(O)C2O)c(=O)n1` (centres undefined), the T/C [2] is reported as 150 % of control, the T/C (dose: 264.0 mg/kg/injection, schedule: Q04DX003 (ip), vehicle: saline with Tween-80) is reported as 181 % of control and the T/C [3] is reported as 166 % of control and 177 % of control. The T/C (dose: 600.0 mg/kg/injection, schedule: Q04DX003 (ip), vehicle: saline with Tween-80) was 209 % of control.

`COc1cc2c(c(OC)c1OC)-c1cc3c(cc1C(OC(C)=O)C1COC(=O)C1C2)OCO3` (centres undefined) was tested, and the T/C (dose: 0.5 mg/kg/injection, schedule: Q04DX002 (ip), vehicle: acetone) was 97 % of control and 104 % of control, the T/C (dose: 1.0 mg/kg/injection, schedule: Q04DX002 (ip), vehicle: acetone) was 102 % of control and 94 % of control and the T/C (dose: 2.0 mg/kg/injection, schedule: Q04DX002 (ip), vehicle: acetone) was 97 % of control and 104 % of control.

For `CCCCNc1c(C(=O)OCC)cnc2c1cnn2CC`, the T/C (dose: 100.0 mg/kg/injection, schedule: Q04DX002 (ip), vehicle: saline with Tween-80) was 102 % of control, the T/C (dose: 200.0 mg/kg/injection, schedule: Q04DX002 (ip), vehicle: saline with Tween-80) was 102 % of control and the T/C (dose: 400.0 mg/kg/injection, schedule: Q04DX002 (ip), vehicle: saline with Tween-80) was 90 % of control.

In the case of `CCN(CC)C(=O)c1cc(OC)c(C(=O)N(CC)CC)cc1OC`, the T/C [4] is reported as 100 % of control, the T/C [5] is reported as 108 % of control and the T/C [6] is reported as 101 % of control.

In the case of `COc1ccc(OC)c(NC(=O)Nc2nc(C)cs2)c1`, the T/C [1] is reported as 92 % of control, the T/C [7] is reported as 93 % of control and the T/C [8] is reported as 90 % of control.

In the case of `O=C(O)C(Cc1ccccc1)N=Cc1ccc(O)cc1` (centres undefined), the T/C [2] is reported as 102 % of control, the T/C [9] is reported as 106 % of control and the T/C [3] is reported as 97 % of control.

With `CCCc1nnc2n1NC1(CS2)Nc2ccccc2N1` the T/C (dose: 100.0 mg/kg/injection, schedule: Q01DX001 (ip), vehicle: saline with Tween-80) was 98 % of control, the T/C (dose: 200.0 mg/kg/injection, schedule: Q01DX001 (ip), vehicle: saline with Tween-80) was 97 % of control and the T/C (dose: 400.0 mg/kg/injection, schedule: Q01DX001 (ip), vehicle: saline with Tween-80) was 95 % of control.

In the case of `CN1CCCC2C(c3ccccc3)C(C3=NCCCC3)C(c3ccccc3)CC21` (centres undefined), the T/C [10] is reported as 100 % of control, the T/C (dose: 25.0 mg/kg/injection, schedule: Q04DX003 (ip), vehicle: saline with Tween-80) is reported as 113 % of control and the T/C [11] is reported as 100 % of control. For the same compound, the T/C [12] was 100 % of control, the T/C [13] was 104 % of control and the T/C [2] was 100 % of control.

For `CCCCCCCCCCC(OC(C)=O)C1CCC(C2CCC(C(O)CCCCCCCCCCCCC3C=C(C)OC3=O)O2)O1` (centres undefined), the T/C (dose: 0.25 mg/kg/injection, schedule: Q01DX005 (ip), vehicle: water) was 111 % of control and the T/C (dose: 0.5 mg/kg/injection, schedule: Q01DX005 (ip), vehicle: water) was 124 % of control.

In the case of `CCOC(=O)C(Cc1ccc(N(CCCl)CCCl)cc1)NC=O` (centres undefined), the T/C (dose: 6.25 mg/kg/injection, schedule: Q04DX003 (ip), vehicle: saline with Tween-80) is reported as 150 % of control, the T/C (dose: 12.5 mg/kg/injection, schedule: Q04DX003 (ip), vehicle: saline with Tween-80) is reported as 154 % of control and the T/C [10] is reported as 181 % of control. The T/C [11] was 209 % of control, the T/C [12] was 181 % of control and the T/C [13] was 100 % of control. For the same compound, the T/C [2] was 204 % of control and 216 % of control and the T/C [9] was 91 % of control.

For `CCC(=O)O[C@H]1CC[C@H]2[C@@H]3C[C@H](F)C4=CC(=O)CC[C@]4(C)[C@H]3CC[C@]12C`, the T/C [11] was 100 % of control, the T/C [13] was 100 % of control and the T/C (dose: 200.0 mg/kg/injection, schedule: Q01DX009 (ip), vehicle: saline with Tween-80) was 100 % of control.

`Cn1c(-c2ccc3c(c2)OCO3)cc(=O)c2ccccc21` was tested, and the T/C (dose: 30.0 mg/kg/injection, schedule: Q01DX005 (ip), vehicle: saline with Tween-80) was 97 % of control, the T/C [4] was 92 % of control and the T/C [5] was 92 % of control.

For `Cc1ccc(I)c(C(C)(C)O)c1`, the T/C [1] was 100 % of control, the T/C [7] was 95 % of control and the T/C [8] was 97 % of control.

For `CC1C(C(=O)NCCc2ccccc2)CC2CCCCN21` (centres undefined), the T/C [4] was 102 % of control and the T/C [5] was 96 % of control.

`O=C1CC2(CCCc3sccc32)C(=O)N1` (centres undefined) was tested, and the T/C [4] was 101 % of control, the T/C [5] was 94 % of control and the T/C [6] was 92 % of control.

`Cc1ncc2c(n1)-c1ccccc1OC2O` (centres undefined) was tested, and the T/C (dose: 50.0 mg/kg/injection, schedule: Q01DX009 (ip), vehicle: saline) was 103 % of control, the T/C (dose: 100.0 mg/kg/injection, schedule: Q01DX009 (ip), vehicle: saline) was 91 % of control and the T/C (dose: 200.0 mg/kg/injection, schedule: Q01DX009 (ip), vehicle: saline) was 100 % of control.

For `COc1ccc(C2c3cc4c(cc3OC(N3CCCC3)C2C)OCO4)c(OC)c1` (centres undefined), the T/C [4] was 99 % of control, the T/C [5] was 99 % of control and the T/C [6] was 97 % of control.

For `COc1ccc2nc3cc(Cl)ccc3c(Nc3ccccc3NS(C)(=O)=O)c2n1`, the T/C (dose: 12.5 mg/kg/injection, schedule: Q01DX009 (ip), vehicle: other) was 103 % of control, the T/C (dose: 25.0 mg/kg/injection, schedule: Q01DX009 (ip), vehicle: other) was 105 % of control and the T/C (dose: 50.0 mg/kg/injection, schedule: Q01DX009 (ip), vehicle: other) was 105 % of control. The T/C (dose: 100.0 mg/kg/injection, schedule: Q01DX009 (ip), vehicle: other) was 111 % of control and 112 % of control and the T/C (dose: 200.0 mg/kg/injection, schedule: Q01DX009 (ip), vehicle: other) was 106 % of control.

In the case of `COc1ccc(Cn2nnc(C(N)=O)c2NC=O)cc1`, the T/C (dose: 100.0 mg/kg/injection, schedule: Q01DX001 (ip), vehicle: Klucel (hydroxypropylcellulose) (HPC)) is reported as 95 % of control, the T/C (dose: 200.0 mg/kg/injection, schedule: Q01DX001 (ip), vehicle: Klucel (hydroxypropylcellulose) (HPC)) is reported as 100 % of control and the T/C (dose: 400.0 mg/kg/injection, schedule: Q01DX001 (ip), vehicle: Klucel (hydroxypropylcellulose) (HPC)) is reported as 100 % of control.

`O=C(NC(=S)c1ccc(Cl)cc1)Nc1ccccc1` was tested, and the T/C [10] was 99 % of control, the T/C [11] was 94 % of control and the T/C [13] was 99 % of control.

In the case of `COC1CCCC2OC3(OC)C(OC)CCCC3OC12OC` (centres undefined), the T/C (dose: 50.0 mg/kg/injection, schedule: Q04DX003 (ip), vehicle: Klucel (hydroxypropylcellulose) (HPC)) is reported as 100 % of control, the T/C (dose: 100.0 mg/kg/injection, schedule: Q04DX003 (ip), vehicle: Klucel (hydroxypropylcellulose) (HPC)) is reported as 97 % of control and the T/C (dose: 200.0 mg/kg/injection, schedule: Q04DX003 (ip), vehicle: Klucel (hydroxypropylcellulose) (HPC)) is reported as 96 % of control.

`CC1CCC2(C)CCC3(C)C4=CCC5C(C)(C)C(O)CCC5(C)C4CCC3(C)C2C1C` (centres undefined) was tested, and the T/C (dose: 200.0 mg/kg/injection, schedule: Q04DX003 (ip), vehicle: other) was 95 % of control and the T/C (dose: 400.0 mg/kg/injection, schedule: Q04DX003 (ip), vehicle: other) was 100 % of control.

For `N=c1nc(-c2ccccc2)c(-c2ccccc2)nn1CC(=O)c1ccc(Br)cc1`, the T/C (dose: 50.0 mg/kg/injection, schedule: Q01DX005 (ip), vehicle: Klucel (hydroxypropylcellulose) (HPC)) was 111 % of control and the T/C (dose: 100.0 mg/kg/injection, schedule: Q01DX005 (ip), vehicle: Klucel (hydroxypropylcellulose) (HPC)) was 94 % of control.
